Read-outs that look alike come from different tables or passages of the source. Residues, ends and D or L forms follow the SMILES beside them. No end group written: not given here.
Columns and labels:
[1] = test system: in vitro model of the BBB (co-culture of bovine brain capillary endothelial cells and rat glial cells); test: First level screening: peptide passage in the in vitro BBB model, Coomassie blue detection; settings: 90 minutes at 37° C.
Excerpt: An in vitro model was used for screening assay and for mechanistic studies of drug transport to the brain. […] The model consists of a co-culture of bovine brain capillary endothelial cells and rat glial cells. It presents ultrastructural features characteristic of brain endothelium including tight junctions, lack of fenestration, lack of transendothelial channels, low permeability for hydrophilic molecules and a high electrical resistance.
The in vitro model of BBB was established by using a co-culture of BBCECs and astrocytes. Prior to cell culture, plate inserts (Millicell-PC 3.0 μM; 30-mm diameter) were coated on the upper side with rat tail collagen. They were then set in six-well microplates containing the astrocytes and BBCECs were plated on the upper side of the filters in 2 mL of co-culture medium. This BBCEC medium was changed three times a week. Under these conditions, differentiated BBCECs formed a confluent monolayer 7 days later. Experiments were performed between 5 and 7 days after confluence was reached. The permeability coefficient for sucrose was measured to verify the endothelial permeability.
Briefly, after removing the meninges, the brain tissue was forced gently through an 82 μm nylon sieve. Astrocytes were plated on six-well microplates at a concentration of 1.2×10^5 cells/mL in 2 mL of optimal culture medium (DMEM) supplemented with 10% heat inactivated fetal bovine serum. The medium was changed twice a week.
Bovine brain capillary endothelial cells (BBCECs) were obtained from Cellial Technologies. The cells were cultured in the presence of DMEM medium supplemented with 10% (v/v) horse serum and 10% heat-inactivated calf serum, 2 mM of glutamine, 50 μg/mL of gentamycin, and 1 ng/mL of basic fibroblast growth factor, added every other day.
Each peptide was added to the upper side of the inserts covered or non-covered with endothelial cells for 90 minutes at 37° C. […] After 90 minutes of transcytosis, a volume of 50 μl from the basolateral side of the filters covered with endothelial cells (+) or non-covered (−) was also loaded on Tricine gels. To visualize the peptides gels were stained with Coomassie blue.

[2] = test system: in vitro model of the BBB (bovine brain capillary endothelial cells); test: Second level screening: [125I]-peptide passage in the in vitro BBB model (cpm ratios)
Method: This BBCEC medium was changed three times a week.
The medium was changed twice a week.
Briefly, the selected peptides were iodinated with standard procedures using iodo-beads from Sigma. Two iodo-beads were used for each protein. […] The iodination for each peptide was initiated by adding 100 μg (80-100 μl) of the bead suspension. […] Fractions of 0.5 ml were collected and the radioactivity in 5 μl of each fraction was measured.
The iodinated peptides were also investigated with the in vitro model of the BBB. […] Results were expressed as cpm ratios.

[3] = test system: in vitro BBB model (BBCEC monolayers grown on filters in the presence of astrocytes); test: Permeability coefficient (Pe) / transcytosis capacity in the in vitro BBB model; type: in vitro ADME, bovine; settings: third level of selection, peptide at 250 nM
Method: At different times, inserts were placed into another well.
Transcytosis capacity of Aprotinin-Paclitaxel conjugate was determined and is reported below in Table 5.

[4] = test system: mouse brain; test: In situ cerebral perfusion with post-perfusion capillary depletion; type: in vivo, mice; settings: perfusion 5 min; for Volume of distribution, Capillaries % / Volume of distribution, Parenchyma %: share of homogenate; for Volume of distribution, Homogenate: total brain
Excerpt: The in situ cerebral perfusion (in mice) was used as the fourth level of selection to select the best peptides. This procedure also distinguishes between compounds remaining in the brain vascular compartment from those having crossed the abluminal endothelial membrane to enter the brain parenchyma. Indeed, the technique of post-perfusion capillary depletion allows to measure whether the molecule really crosses the endothelium to enter the brain parenchyma.

| Compound | Peptide detected in the lower side of the chambers by Coomassie blue staining [1] | Permeability coefficient (Pe) [3] | Volume of distribution, Capillaries [4] [ml/100 g] | Volume of distribution, Capillaries % [4] [%] | Volume of distribution, Homogenate [4] [ml/100 g] | also measured |
| --- | --- | --- | --- | --- | --- | --- |
| C[C@@H](O)[C@H](N)C(=O)N[C@@H](Cc1ccccc1)C(=O)N[C@@H](Cc1ccccc1)C(=O)N[C@@H](Cc1ccc(O)cc1)C(=O)NCC(=O)NCC(=O)N[C@@H](CO)C(=O)N[C@@H](CCCNC(=N)N)C(=O)NCC(=O)N[C@@H](CCCCN)C(=O)N[C@@H](CCCNC(=N)N)C(=O)N[C@@H](CC(N)=O)C(=O)N[C@@H](CC(N)=O)C(=O)N[C@@H](Cc1ccccc1)C(=O)N[C@@H](CCCCN)C(=O)N[C@H](C(=O)N[C@@H](CCC(=O)O)C(=O)N[C@@H](CCC(=O)O)C(=O)N[C@@H](Cc1ccc(O)cc1)C(=O)O)[C@@H](C)O [Peptide 70, T F F Y G G S R G K R N N F K T E E Y] | detected in the lower side of the chambers |  |  |  |  |  |
| C[C@@H](O)[C@H](NC(=O)[C@H](CCCCN)NC(=O)[C@H](Cc1ccccc1)NC(=O)[C@H](CC(N)=O)NC(=O)[C@H](CC(N)=O)NC(=O)[C@H](CCCNC(=N)N)NC(=O)[C@H](CCCCN)NC(=O)CNC(=O)[C@H](CCCNC(=N)N)NC(=O)[C@H](CS)NC(=O)[C@H](CS)NC(=O)CNC(=O)[C@H](Cc1ccc(O)cc1)NC(=O)[C@H](Cc1ccccc1)NC(=O)[C@H](Cc1ccccc1)NC(=O)[C@@H](NC(=O)[C@@H](N)CS)[C@@H](C)O)C(=O)N[C@@H](CCC(=O)O)C(=O)N[C@@H](CCC(=O)O)C(=O)N[C@@H](Cc1ccc(O)cc1)C(=O)O [Peptide 71, CTFFYGCCRGKRNNFKTEEY] (H-CTFFYGCCRGKRNNFKTEEY-OH; N-terminus and C-terminus assumed) | detected in the lower side of the chambers |  |  |  |  | Ratio −cells/initial [2]: 0.072; Ratio +cells/−cells ([2]; [125I]-peptide in bottom chamber of filters covered with vs without endothelial cells): 0.37; Ratio +cells/initial ([2]; [125I]-peptide, cpm in bottom chamber / total cpm added, filter covered with endothelial cells, 90 minutes at 37° C.): 0.027 |
| C[C@@H](O)[C@H](N)C(=O)N[C@@H](Cc1ccccc1)C(=O)N[C@@H](Cc1ccccc1)C(=O)N[C@@H](Cc1ccc(O)cc1)C(=O)NCC(=O)NCC(=O)N[C@@H](CS)C(=O)N[C@@H](CCCNC(=N)N)C(=O)NCC(=O)N[C@@H](CCCCN)C(=O)N[C@@H](CCCNC(=N)N)C(=O)N[C@@H](CC(N)=O)C(=O)N[C@@H](CC(N)=O)C(=O)N[C@@H](Cc1ccccc1)C(=O)N[C@@H](CCCCN)C(=O)N[C@H](C(=O)N[C@@H](CCC(=O)O)C(=O)N[C@@H](CCC(=O)O)C(=O)N[C@@H](Cc1ccc(O)cc1)C(=O)N[C@@H](CS)C(=O)O)[C@@H](C)O [Peptide 72, TFFYGGCRGKRNNFKTEEYC] (H-TFFYGGCRGKRNNFKTEEYC-OH; N-terminus and C-terminus assumed) | detected in the lower side of the chambers |  |  |  |  |  |
| C[C@@H](O)[C@H](NC(=O)[C@H](CCCCN)NC(=O)[C@H](Cc1ccccc1)NC(=O)[C@H](CC(N)=O)NC(=O)[C@H](CC(N)=O)NC(=O)[C@H](CCCNC(=N)N)NC(=O)[C@H](CCCCN)NC(=O)CNC(=O)[C@H](CCCNC(=N)N)NC(=O)[C@H](CS)NC(=O)[C@H](CO)NC(=O)CNC(=O)[C@H](Cc1ccc(O)cc1)NC(=O)[C@H](Cc1ccccc1)NC(=O)[C@H](Cc1ccccc1)NC(=O)[C@@H](NC(=O)[C@@H](N)CS)[C@@H](C)O)C(=O)N[C@@H](CCC(=O)O)C(=O)N[C@@H](CCC(=O)O)C(=O)N[C@@H](Cc1ccc(O)cc1)C(=O)O [Peptide 73, CTFFYGSCRGKRNNFKTEEY] (H-CTFFYGSCRGKRNNFKTEEY-OH; N-terminus and C-terminus assumed) | detected in the lower side of the chambers |  |  |  |  |  |
| PFFYGGCRGKRNNFKTEEY [Peptide 75, P F F Y G G C R G K R N N F K T E E Y] | detected in the lower side of the chambers |  |  |  |  |  |
| R F K Y G G C L G N K N N Y L R L K Y (RFKYGGCLGNKNNYLRLKY-NH2) [Peptide 91] | detected in the lower side of the chambers | highest Pe | 24 | 59 | 47 | Ratio +cells/initial [2]: 0.158; Ratio −cells/initial [2]: 0.406 |
| RFKYGGCLGNKNNFLRLKY [Peptide 90, R F K Y G G C L G N K N N F L R L K Y] | detected in the lower side of the chambers | highest Pe | 76 | 88 | 87 | Volume of distribution, Parenchyma [4]: 11 ml/100 g; Volume of distribution, Parenchyma % [4]: 12% |
| T F F Y G G C R G K R N N F K T K E Y (TFFYGGCRGKRNNFKTKEY-NH2) [Peptide 76] | detected in the lower side of the chambers | highest Pe | 16 | 40 | 40 | Ratio +cells/initial [2]: 0.084; Ratio −cells/initial [2]: 0.222 |
| TFFYGGCRGKKNNFKRAKY [Peptide 8, T F F Y G G C R G K K N N F K R A K Y] | detected in the lower side of the chambers | highest Pe | 204 | 82 | 250 | Volume of distribution, Parenchyma [4]: 46 ml/100 g; Volume of distribution, Parenchyma % [4]: 18% |
| TFFYGGCRGKRNNFKTEEY-NH2 [Peptide 67, T F F Y G G C R G K R N N F K T E E Y] | detected in the lower side of the chambers | highest Pe | 13 | 34 | 38 |  |
| TFFYGGCRGKRNNFKTKRY [Peptide 78, T F F Y G G C R G K R N N F K T K R Y] | detected in the lower side of the chambers | highest Pe | 181 | 90 | 198 | Volume of distribution, Parenchyma [4]: 16 ml/100 g; Volume of distribution, Parenchyma % [4]: 10% |
| TFFYGGCRGNRNNFLTAEY [Peptide 45, T F F Y G G C R G N R N N F L T A E Y] | detected in the lower side of the chambers |  |  |  |  |  |
| TFFYGGKRGKRNNFKRAKY [Peptide 82, T F F Y G G K R G K R N N F K R A K Y] | detected in the lower side of the chambers |  |  |  |  |  |
| TFFYGGKRGKRNNFKREKY [Peptide 81, T F F Y G G K R G K R N N F K R E K Y] | detected in the lower side of the chambers |  |  |  |  |  |
| TFFYGGKRGKRNNFKTAEY [Peptide 79, T F F Y G G K R G K R N N F K T A E Y] | detected in the lower side of the chambers | highest Pe | 52 | 74 | 70 | Volume of distribution, Parenchyma [4]: 18 ml/100 g; Volume of distribution, Parenchyma % [4]: 26% |
| TFFYGGKRGKRNNFKTEEY [Peptide 77, T F F Y G G K R G K R N N F K T E E Y] | detected in the lower side of the chambers |  |  |  |  |  |
| TFFYGGSRGNRNNFKTAKY [Peptide 25, T F F Y G G S R G N R N N F K T A K Y] |  |  | 1082 | 95 | 1141 | Volume of distribution, Parenchyma [4]: 60 ml/100 g; Volume of distribution, Parenchyma % [4]: 5% |
